The results in this text go back to ChEMBL document CHEMBL4190326, “Novel Gomisin B analogues as potential cytotoxic agents: Design, synthesis, biological evaluation and docking studies” (Eur J Med Chem, 2017).

Series [1] is filed under the species Bos taurus. The series can be described thus: Inhibition of bovine brain tubulin polymerization measured for 1 hr at 1 min interval by fluorescence assay relative to control.
In series [2] the test system is MDA-MB-231. The series can be described thus: Cytotoxicity against human MDA-MB-231 cells assessed as reduction in cell viability measured after 48 hrs by SRB assay. The series is classed as functional, cell-based. Conditions: MDA-MB-231, 48 h. (In general: The SRB assay estimates cell density from bound dye.)
Series [3] is filed under the species Bos taurus. The series is described as follows: Induction of bovine brain tubulin polymerization at 5 uM measured for 1 hr at 1 min interval by fluorescence assay relative to control.
For series [4], the target named is T1, Tubulin (Homo sapiens) (UniProt P68371+Q9H4B7+P0DPH7+P68366+Q13509+Q71U36+P04350+Q3ZCM7+P07437+P68363+Q9BQE3+Q6PEY2+Q13885+Q9BVA1+Q9BUF5). The series can be described thus: Induction of tubulin polymerization in human HeLa cells assessed as chromosomal alignment on metaphase plate at 10 uM after 24 hrs by DAPI staining/confocal microscopy-based immunofluorescence analysis. The series is classed as cell-based.

Series [5] deals with HeLa. The series is described as follows: Cell cycle arrest in human HeLa cells assessed as G2/M phase accumulation at 20 uM after 24 hrs by propidium iodide staining based flow cytometric analysis (reference value: 29.18%). Format: functional. For orientation: In flow cytometry, cells or beads pass a laser one at a time.
The test system of series [6] is HeLa. The series is described as follows: Cell cycle arrest in human HeLa cells assessed as G2/M phase accumulation after 24 hrs by propidium iodide staining based flow cytometric analysis. Format: functional.
Series [7] has as its system A549. The series is described as follows: Cytotoxicity against human A549 cells assessed as reduction in cell viability measured after 48 hrs by SRB assay. Format: functional, cell-based. Conditions: A549, 48 h.
The subject of series [8] is IMR-32. The series can be described thus: Cytotoxicity against human IMR32 cells assessed as reduction in cell viability measured after 48 hrs by SRB assay. Format: functional, cell-based. Conditions: IMR-32, 48 h.
In series [9] the test system is HeLa. The series can be described thus: Cell cycle arrest in human HeLa cells assessed as G2/M phase accumulation at 10 uM after 24 hrs by propidium iodide staining based flow cytometric analysis (reference value: 29.18%). The series is classed as functional.
Series [10] has as its system HEK293. The series can be described thus: Cytotoxicity against HEK293 cells assessed as reduction in cell viability measured after 48 hrs by SRB assay. Conditions: Homo sapiens, HEK293, 48 h. Format: cell-based.
Series [11] has as its target T1, Tubulin (Homo sapiens). The series is described as follows: Induction of tubulin polymerization in human HeLa cells assessed as increase in insoluble tubulin fraction after 24 hrs by Western blot analysis. Format: cell-based. On the technique in general: Immunoblotting shows a protein as a band on a membrane.
Series [12] has as its system HeLa. The series is described as follows: Cell cycle arrest in human HeLa cells assessed as G2/M phase accumulation at 5 uM after 24 hrs by propidium iodide staining based flow cytometric analysis (reference value: 29.18%). Format: functional.
For series [13], the system named is DU-145. The series is described as follows: Cytotoxicity against human DU145 cells assessed as reduction in cell viability measured after 48 hrs by SRB assay. The series is classed as functional, cell-based. Conditions: DU-145, 48 h.
Series [14] can be described thus: Selectivity index, ratio of IC50 for HEK293 cells to IC50 for human DU145 cells. Format: toxicity. Particulars: HEK293 cells versus DU145 cells, read-out: Ratio IC50.
In series [15] the test system is PANC-1. The series can be described thus: Cytotoxicity against human PANC1 cells assessed as reduction in cell viability measured after 48 hrs by SRB assay. Format: functional, cell-based. Conditions: PANC-1, 48 h.
Series [16] concerns SiHa. The series can be described thus: Cytotoxicity against human SiHa cells assessed as reduction in cell viability measured after 48 hrs by SRB assay. The series is classed as functional, cell-based.
Series [17] concerns the target T1, Tubulin (Homo sapiens). The series is described as follows: Induction of tubulin polymerization in human HeLa cells assessed as multiple spindle formation after 24 hrs by DAPI staining/confocal microscopy-based immunofluorescence analysis. The series is classed as cell-based.
For series [18], the system named is HeLa. The series can be described thus: Cell cycle arrest in human HeLa cells assessed as G2/M phase accumulation after 24 hrs by propidium iodide staining based flow cytometric analysis (reference value: 29.18%). The series is classed as functional.

The source made the active and inactive calls. The calls are words filed in the database; no cut-off is given here. Bounds are passed on as bounds.

Consider `COc1ccc(/C=C\c2cc(OC)c(OC)c(OC)c2)cc1O`, for which the fold change (FC) in series [1] is 0.15.

For the molecule `COc1cc2c(c(OC)c1OC)-c1c(cc3c(c1OC)OCO3)C[C@H](C)[C@@](C)(O)/C2=N/OCc1cn(-c2ccc([N+](=O)[O-])c(Cl)c2)nn1`, the IC50 amounted to 11.4 µM in series [2]; 7.9 µM in series [7]; 8.6 µM in [8]; 50.2 µM in series [10]; 12.8 µM in series [13]. Besides, the fold change (FC) in series [3] is 1.25. In addition, the outcome in series [4] was Active. Moreover, the Activity in series [5] was 46.83%; in series [6], “Dose-dependent effect”; in series [9], 43.06%; in [11], “Dose-dependent effect”; in [12], 37.11%.

Regarding `C#CCO/N=C1\c2cc(OC)c(OC)c(OC)c2-c2c(cc3c(c2OC)OCO3)C[C@H](C)[C@@]1(C)O`, the IC50 in series [2] was 80.4 µM; in series [7] it was 98.1 µM; in series [15], 97.2 µM; in [8], 82.6 µM; in series [10], over 100 µM; in [13], 99.5 µM. The IC50 in series [16] is 96.1 µM. The selectivity ratio in series [14] was determined as 1.01.

On to `CC(=O)O[C@H]1C(=O)[C@@]2(C)[C@H]([C@H](OC(=O)c3ccccc3)[C@]3(O)C[C@H](OC(=O)[C@H](O)[C@@H](NC(=O)c4ccccc4)c4ccccc4)C(C)=C1C3(C)C)[C@]1(OC(C)=O)CO[C@@H]1C[C@@H]2O`, for which the fold change (FC) in series [1] was 2.68. For the same molecule, the outcome in series [17] and in series [11] was Active.

`COc1cc2c(c(OC)c1OC)-c1c(cc3c(c1OC)OCO3)C[C@H](C)[C@@](C)(O)/C2=N/OCc1cn(-c2ccc(Cl)cc2)nn1`: the half-inhibitory concentration (IC50) in series [2] was 82.6 µM; in series [7], over 100 µM; in series [15], 92.7 µM; in series [8], 83.9 µM; in [10] it was over 100 µM; in series [13] it was 99.4 µM. The IC50 in [16] was found to be 98.5 µM. Besides, in series [14], the selectivity ratio stood at 1.01.

Regarding `COc1cc2c(c(OC)c1OC)-c1c(cc3c(c1OC)OCO3)C[C@H](C)[C@@](C)(O)/C2=N/OCc1cn(CC(=O)Nc2ccccc2)nn1`, the IC50 in [2] is 79.8 µM; in series [7], 93.7 µM; in series [15], 91.1 µM; in [8], 86.3 µM; in series [10], over 100 µM; in [13], 91.5 µM. Besides, the IC50 in [16] came out at 88.6 µM. The selectivity ratio in [14] stood at 1.1.

In the case of `COc1cc2c(c(OC)c1OC)-c1c(cc3c(c1OC)OCO3)C[C@H](C)[C@@](C)(O)C2=O`, the IC50 in series [2] was 73.1 µM; in [7], 94.8 µM; in series [15], 88.6 µM; in series [8] it was 72.3 µM; in series [10], over 100 µM; in series [13], 83.1 µM. The IC50 in series [16] was found to be 75.1 µM. Further, the selectivity ratio in series [14] is 1.2.

`COc1cccc(-n2cc(CO/N=C3\c4cc(OC)c(OC)c(OC)c4-c4c(cc5c(c4OC)OCO5)C[C@H](C)[C@@]3(C)O)nn2)c1`: the half-maximal inhibitory concentration (IC50) in series [2] was 82.1 µM; in series [7], 96.4 µM; in [15] it was 98 µM; in series [8], 77.4 µM; in series [10] it was over 100 µM; in [13] it was 95.8 µM. In addition, in [16], the IC50 was found to be 92.1 µM. In addition, the selectivity ratio in series [14] was determined as 1.1.

For `COC(=O)Nc1nc2cc(C(=O)c3cccs3)ccc2[nH]1` [NOCODAZOLE], in series [18], the Activity stood at 91.7%.

`COc1cc2c(c(OC)c1OC)-c1c(cc3c(c1OC)OCO3)C[C@H](C)[C@@](C)(O)/C2=N/OCc1cn(-c2ccc(I)cc2)nn1`: the IC50 in [2] is 76.8 µM; in series [7] it was 90.8 µM; in series [15] it was 83.4 µM; in series [8], 89.7 µM; in series [10], over 100 µM; in series [13], 89.4 µM. Moreover, in [16], the half-maximal inhibitory concentration (IC50) was 76.4 µM. Further, in series [14], the selectivity ratio was determined as 1.1.

A word on the IC50: it is the concentration that gives 50% inhibition.
